Here are results for one compound from patent US6777442B2, “Diphenyl derivatives” (Bayer Aktiengesellschaft, priority 2001, dated 2004).

The assay can be described thus: T3 promoter assay cell test (luciferase reporter). In kind it is cell-based. The conditions noted are these: Homo sapiens; HepG2 cells, luciferase induction, costimulator retinoic acid, incubation 48 or 72 hours. How it is done:
The activity of the compounds according to the invention can be examined, for example, in vitro by the known T3 promoter assay cell test, described below:
The test is carried out using a stabily transfected human HepG2 hepatocarcinoma cell which expresses a luciferase gene under the control of a thyroid-hormone-regulated promoter. The vector used for transfection carries, upstream of the luciferase gene, a minimal thymidine kinase promoter with a thyroid-hormone-responsive element (TRE) comprising two inverted palindromes of in each case 12 bp and one 8 bp spacer.
For the test, the cell cultures are sown in 96-well plates in Eagle's Minimal Essential Medium, with the following additives: glutamine, tricine, [N-(tris-hydroxymethyl)-methyl)glycine], sodium pyruvate, non-essential amino acids (L-Ala, L-Asn, L-Asp, L-Pro, L-Ser, L-Glu, Gly), insulin, selenium and transferrin. The cultures are grown at 37° C. in a 10% CO2 atmosphere for 48 hours. Serial dilutions of test substance or reference compound (T3, T4) and the costimulator retinoic acid are then added to the test cultures, which are then incubated as above for a further 48 or 72 hours. […] To determine the luciferase, induced by T3 or other substances, the cells are then lyzed by addition of a triton- and luciferin-containing buffer (from Promega) and immediately measured luminometrically. For each compound, the EC50 is calculated. […]

The EC50 is the concentration that produces a half-maximal response. `Cc1cc(OCC(=O)O)cc(C)c1Cc1ccc(O)c(S(=O)(=O)c2ccc(F)cc2)c1` [Example 2, (4-{3-[(4-Fluorophenyl)sulphonyl]-4-hydroxybenzyl}-3,5-dimethylphenoxy)acetic acid] returned an EC50 of 2 nM.
